According to patent US11802128B2, “Azetidine and pyrrolidine PARP1 inhibitors and uses thereof” (Xinthera, Inc., priority 2021, dated 2023):
Where two headings read alike, the source gives them in different places.

Assays:
[1] = test system: DLD-1 BRCA2(−/−) cells; assay: Cell growth inhibition assay (CellTiter-Glo cell viability, 7 days); type: cell-based; conditions: Homo sapiens, 168 h
Source text: (§1) The objective of this study is to evaluate the effect of invention compounds on cell proliferation through the cell viability assay in DLD-1 BRCA2(−/−) and parental isogenic pair and MDA-MB-436 (mutated BRCA1) cell lines. The CellTiter-Glo (CTG) based cell viability assay is designed to determine the number of viable cells in the culture because of compound effect, by quantifying ATP, which indicates the presence of metabolically active cells.
(§2) DLD-1 BRCA2(−/−) and parental isogenic pair were cultured in RPMI 1640 supplemented with 10% fetal bovine serum (FBS), and MDA-MB-436 cells were cultured in DMEM supplemented with 10% FBS. Both are culture at 37° C. with 5% CO2. Invention compounds were distributed to the 384 well plate (Corning, 3764) using Echo acoustic liquid handler to form a 1:3 serially diluted final concentration with top dose of 10 or 30 μM. The cells were seeded into the plate in the density of 50 cells/well (DLD-1 parental), 200 cells/well (DLD-1 BRCA2−/−), or 500 cells/well (MDA-MB-436). After a short spun, the cells were cultured in a well moisturized incubator at 37° C. with 5% CO2 for 7 days without disturbance. The cell viability was measured by CellTiter Glo 2.0 assay kit (Promega, G9243), and growth inhibition rate was calculated and plotted against final compound concentration, and the data were fitted in Xfit to generate IC50.

[2] = test system: MDA-MB-436 (mutated BRCA1) cells; assay: as above; type: cell-based; conditions: Homo sapiens, 168 h, MDA-MB-436, 7 days
Source text: as §1, §2

[3] = biological target: PARP2 (Homo sapiens (Human), UniProt Q9UGN5); assay: Biochemical fluorescent polarization (FP) assay, displacement of PARPi-FL; type: binding
PARP2, sequence (Q9UGN5 whole entry): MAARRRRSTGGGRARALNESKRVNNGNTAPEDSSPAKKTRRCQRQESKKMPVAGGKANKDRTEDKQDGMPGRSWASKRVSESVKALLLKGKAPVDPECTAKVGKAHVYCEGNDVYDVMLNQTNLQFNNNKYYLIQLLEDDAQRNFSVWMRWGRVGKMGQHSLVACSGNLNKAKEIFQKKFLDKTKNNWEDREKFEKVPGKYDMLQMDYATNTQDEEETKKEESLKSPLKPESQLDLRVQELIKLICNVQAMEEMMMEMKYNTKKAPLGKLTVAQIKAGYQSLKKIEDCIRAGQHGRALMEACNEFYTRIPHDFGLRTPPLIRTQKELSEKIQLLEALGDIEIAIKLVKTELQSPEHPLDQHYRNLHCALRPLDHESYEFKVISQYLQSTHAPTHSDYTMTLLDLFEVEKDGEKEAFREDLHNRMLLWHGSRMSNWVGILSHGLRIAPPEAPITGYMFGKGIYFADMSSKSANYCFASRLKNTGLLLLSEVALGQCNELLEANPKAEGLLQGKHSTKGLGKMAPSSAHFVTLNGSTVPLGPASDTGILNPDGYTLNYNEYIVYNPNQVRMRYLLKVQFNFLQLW
Procedure: (§3) The assay was performed utilizing the following method:
(§4) 100% DMSO was used for the high (with protein) and low (without protein) control samples. 20 nL of compound or DMSO alone was added to individual assay plate wells.
(§5) PARP1 and PARP2 protein were expressed, purified, and diluted in assay buffer containing 50 mM Tris pH 8.0, 0.001% Triton X-100, 10 mM MgCl2, 150 mM NaCl to a final concentration of 20 nM. The PARPi-FL was then added at a final concentration of 3 nM.
(§6) The assay plate is centrifuged at 1000 rpm for 1 min and incubated for 4 h at room temperature.
(§7) The fluorescent polarization is read using an Envision plate reader using the following settings: […]

[4] = biological target: PARP1 (Homo sapiens (Human), UniProt P09874); assay: as above; type: binding; conditions: 20 nM protein, 3 nM PARPi-FL, 4 h at room temperature
PARP1, sequence (P09874 whole entry): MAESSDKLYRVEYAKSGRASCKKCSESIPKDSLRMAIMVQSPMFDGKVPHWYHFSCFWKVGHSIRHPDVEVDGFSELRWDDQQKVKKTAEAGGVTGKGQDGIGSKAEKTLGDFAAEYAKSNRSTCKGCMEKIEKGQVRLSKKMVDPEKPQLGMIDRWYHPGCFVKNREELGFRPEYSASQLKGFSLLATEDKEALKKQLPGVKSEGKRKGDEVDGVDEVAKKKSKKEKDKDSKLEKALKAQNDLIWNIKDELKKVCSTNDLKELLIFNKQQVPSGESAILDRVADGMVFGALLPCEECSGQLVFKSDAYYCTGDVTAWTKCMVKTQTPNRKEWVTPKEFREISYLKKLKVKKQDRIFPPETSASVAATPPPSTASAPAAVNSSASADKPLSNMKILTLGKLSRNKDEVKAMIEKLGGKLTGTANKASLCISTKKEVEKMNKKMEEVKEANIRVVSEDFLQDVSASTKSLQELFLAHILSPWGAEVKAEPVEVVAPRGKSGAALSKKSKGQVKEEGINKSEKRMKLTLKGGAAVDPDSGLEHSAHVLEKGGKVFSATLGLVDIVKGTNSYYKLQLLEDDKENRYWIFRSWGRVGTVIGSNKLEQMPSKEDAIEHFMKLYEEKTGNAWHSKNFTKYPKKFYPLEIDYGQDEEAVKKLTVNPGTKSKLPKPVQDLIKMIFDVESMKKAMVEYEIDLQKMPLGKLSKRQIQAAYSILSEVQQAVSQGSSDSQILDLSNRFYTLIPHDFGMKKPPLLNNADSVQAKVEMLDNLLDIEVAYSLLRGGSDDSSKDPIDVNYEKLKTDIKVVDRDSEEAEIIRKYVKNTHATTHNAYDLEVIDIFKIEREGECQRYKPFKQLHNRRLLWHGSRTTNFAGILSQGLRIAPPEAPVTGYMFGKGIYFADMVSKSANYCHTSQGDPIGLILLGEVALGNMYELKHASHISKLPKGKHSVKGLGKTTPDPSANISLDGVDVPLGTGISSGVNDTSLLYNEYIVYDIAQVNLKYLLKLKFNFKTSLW
Procedure: as §3, §4, §5, §6, §7

[5] = 20 nM protein, 3 nM PARPi-FL, 4 h at room temperature, read-out: IC50 FP PARP2

CCc1cc2ncc(CN3CC[C@@H](Oc4ccc(C(=O)NC5CC5)nc4)C3)cc2[nH]c1=O [Example 4, N-cyclopropyl-5-{[(3R)-1-[(7-ethyl-6-oxo-5H-1,5-naphthyridin-3-yl)methyl]pyrrolidin-3-yl]oxy}pyridine-2-carboxamide]
EC50 [1]: 2 nM
EC50 [2]: 1.1 nM
IC50 [3, 5]: 11000 nM
IC50 [4]: 5.8 nM

Cc1cc2ncc(CN3CC[C@@H](Oc4ccc(C(=O)NC5CC5)nc4)C3)cc2[nH]c1=O [Example 7, N-cyclopropyl-5-{[(3R)-1-[(7-methyl-6-oxo-5H-1,5-naphthyridin-3-yl)methyl]pyrrolidin-3-yl]oxy}pyridine-2-carboxamide]
EC50 [1]: 13 nM
EC50 [2]: 8.3 nM
IC50 [3, 5]: 66000 nM
IC50 [4]: 7.4 nM

CCc1cc2ncc(CN3CC[C@@](C)(Oc4ccc(C(=O)NC)nc4)C3)cc2[nH]c1=O [Example 12, 5-{[(3R)-1-[(7-ethyl-6-oxo-5H-1,5-naphthyridin-3-yl)methyl]-3-methylpyrrolidin-3-yl]oxy}-N-methylpyridine-2-carboxamide]
EC50 [1]: 83 nM
EC50 [2]: 36 nM
IC50 [3, 5]: 62000 nM
IC50 [4]: 6.6 nM

CCc1cc2ncc(CN3CC(Nc4ccc(C(=O)NC)nc4)C3)cc2[nH]c1=O [Example 14, 5-({1-[(7-ethyl-6-oxo-5H-1,5-naphthyridin-3-yl)methyl]azetidin-3-yl}amino)-N-methylpyridine-2-carboxamide]
EC50 [1]: 9.8 nM
EC50 [2]: 4.1 nM
IC50 [3, 5]: 14000 nM
IC50 [4]: 5.2 nM

CCc1cc2ncc(CN3C[C@H](Oc4ccc(C(=O)NC)nc4)[C@H]3C)cc2[nH]c1=O [Example 17, 5-{[(2R,3S)-1-[(7-ethyl-6-oxo-5H-1,5-naphthyridin-3-yl)methyl]-2-methylazetidin-3-yl]oxy}-N-methylpyridine-2-carboxamide]
EC50 [1]: 1.2 nM
EC50 [2]: 0.79 nM
IC50 [3, 5]: 21000 nM
IC50 [4]: 7.3 nM

CCc1cc2ncc(CN3C[C@H](Oc4ccc(C(=O)NC)nc4)[C@@H]3C)cc2[nH]c1=O [Example 20, 5-(((2S,3S)-1-((7-ethyl-6-oxo-5,6-dihydro-1,5-naphthyridin-3-yl)methyl)-2-methylazetidin-3-yl)oxy)-N-methylpicolinamide]
EC50 [1]: 40 nM
EC50 [2]: 35 nM
IC50 [3, 5]: 19000 nM
IC50 [4]: 5.6 nM

CCc1cc2ncc(CN3CC(Oc4ccc(C(=O)NC5CC5)nc4)C3)cc2[nH]c1=O [Example 21, N-cyclopropyl-5-({1-[(7-ethyl-6-oxo-5H-1,5-naphthyridin-3-yl)methyl]azetidin-3-yl}oxy)pyridine-2-carboxamide]
EC50 [1]: 1.8 nM
EC50 [2]: 1.2 nM
IC50 [3, 5]: 14000 nM
IC50 [4]: 6.6 nM

CCc1cc2ncc(CN3CC(Oc4ccc(C#N)cc4)C3)cc2[nH]c1=O [Example 22, 4-({1-[(7-ethyl-6-oxo-5H-1,5-naphthyridin-3-yl)methyl]azetidin-3-yl}oxy)benzonitrile]
EC50 [1]: 37 nM
EC50 [2]: 27 nM
IC50 [3, 5]: 16000 nM
IC50 [4]: 5.1 nM

CCc1cc2ncc(CN3CC(Oc4ccc(C#N)nc4)C3)cc2[nH]c1=O [Example 24]
EC50 [1]: 13 nM
EC50 [2]: 24 nM
IC50 [3, 5]: 17000 nM
IC50 [4]: 9.1 nM

CNC(=O)c1ncc(O[C@@H]2CCN(Cc3cnc4cc(C5CC5)c(=O)[nH]c4c3)C2)cc1F [Example 25]
EC50 [1]: 36 nM
EC50 [2]: 41 nM
IC50 [3, 5]: 25000 nM
IC50 [4]: 11 nM

Cc1cc2ncc(CN3CC[C@@H](Oc4cnc(C(=O)NC5CC5)c(F)c4)C3)cc2[nH]c1=O [Example 26]
EC50 [1]: 55 nM
EC50 [2]: 60 nM
IC50 [3, 5]: > 100000 nM
IC50 [4]: 12 nM

CCc1cc2ncc(CN3CC[C@@H](Oc4cnc(C(=O)NC)c(F)c4)C3)cc2[nH]c1=O [Example 27]
EC50 [1]: 19 nM
EC50 [2]: 18 nM
IC50 [3, 5]: 9100 nM
IC50 [4]: 6.7 nM

CCc1cc2ncc(CN3CC[C@@H](Oc4ccc(C(=O)NC)nc4C#N)C3)cc2[nH]c1=O [Example 28]
EC50 [1]: 15 nM
EC50 [2]: 3.3 nM
IC50 [3, 5]: > 100000 nM
IC50 [4]: 3.9 nM

CCc1cc2ncc(CN3CC[C@@H](Oc4ccc(C#N)cn4)C3)cc2[nH]c1=O [Example 29]
EC50 [1]: 78 nM
EC50 [2]: 140 nM
IC50 [3, 5]: 72000 nM
IC50 [4]: 11 nM

CCc1nc2cc(F)c(CN3CC(Oc4ccc(C(=O)NC)nc4)C3)cc2[nH]c1=O [Example 30]
EC50 [1]: 15 nM
EC50 [2]: 47 nM
IC50 [3, 5]: > 100000 nM
IC50 [4]: 7.7 nM

CCc1cc2ncc(CN3C[C@H](Oc4ccc(C(=O)NC)nc4)C[C@H]3C)cc2[nH]c1=O [Example 31]
EC50 [1]: 13 nM
EC50 [2]: 31 nM
IC50 [3, 5]: > 100000 nM
IC50 [4]: 37 nM

CCc1nc2cc(F)c(CN3CC[C@@H](Oc4ccc(C(=O)NC)nc4)C3)cc2[nH]c1=O [Example 32]
EC50 [1]: 6.4 nM
EC50 [2]: 16 nM
IC50 [3, 5]: > 100000 nM
IC50 [4]: 6.8 nM

CCc1cc2ncc(CN3CC[C@@H](Oc4ccc(C(=O)NC5COC5)nc4)C3)cc2[nH]c1=O [Example 33]
EC50 [1]: 4.2 nM
EC50 [2]: 3.7 nM
IC50 [3, 5]: 33000 nM
IC50 [4]: 5.5 nM

CCc1cc2ncc(CN3C[C@H](Oc4ccc(C#N)cn4)[C@H]3C)cc2[nH]c1=O [Example 34]
EC50 [1]: 150 nM
EC50 [2]: 84 nM
IC50 [3, 5]: 12000 nM
IC50 [4]: 13 nM

CNC(=O)c1ccc(O[C@@H]2CCN(Cc3cnc4c(c3)[nH]c(=O)c3ccoc34)C2)cn1 [Example 35]
EC50 [1]: 9.9 nM
EC50 [2]: 32 nM
IC50 [3, 5]: > 100000 nM
IC50 [4]: 3.6 nM

CCc1cc2ncc(CN3C[C@H](Oc4ccc(C#N)nc4)[C@H]3C)cc2[nH]c1=O [Example 36]
EC50 [1]: 12 nM
EC50 [2]: 3.7 nM
IC50 [3, 5]: 15000 nM
IC50 [4]: 5 nM

Cc1cc2ncc(CN3C[C@H](Oc4ccc(C#N)nc4)[C@H]3C)cc2[nH]c1=O [Example 37]
EC50 [1]: 80 nM
EC50 [2]: 66 nM
IC50 [3, 5]: > 100000 nM
IC50 [4]: 4.5 nM

CCc1cc2ncc(CN3C[C@H](Oc4cnc(C(=O)NC)c(F)c4)[C@H]3C)cc2[nH]c1=O [Example 38]
EC50 [1]: 2.9 nM
EC50 [2]: 2.3 nM
IC50 [3, 5]: 10000 nM
IC50 [4]: 6.1 nM

[2H]C([2H])([2H])NC(=O)c1ccc(O[C@H]2CN(Cc3cnc4cc(CC)c(=O)[nH]c4c3)[C@@H]2C)cn1 [Example 39]
EC50 [1]: 1.3 nM
EC50 [2]: 1.1 nM
IC50 [3]: 5900 nM
IC50 [4]: 4.3 nM

CCc1cc2ncc(CN3CC(n4ccc5nc(C(=O)NC)ccc54)C3)cc2[nH]c1=O [Example 40]
EC50 [1]: 180 nM
EC50 [2]: 130 nM
IC50 [3, 5]: 32000 nM
IC50 [4]: 5.5 nM

CNC(=O)c1ccc(O[C@H]2CN(Cc3cnc4cc(C5CC5)c(=O)[nH]c4c3)[C@@H]2C)cn1 [Example 41]
EC50 [1]: 3.2 nM
EC50 [2]: 3 nM
IC50 [3, 5]: 8300 nM
IC50 [4]: 7.6 nM

C[C@@H]1[C@@H](Oc2ccc(C(=O)NC3CC3)nc2)CN1Cc1cnc2cc(C3CC3)c(=O)[nH]c2c1 [Example 42]
EC50 [1]: 2.1 nM
EC50 [2]: 1.1 nM
IC50 [3, 5]: 6300 nM
IC50 [4]: 5.8 nM
